Measurements: patent publication US20080045498A1, “[…] INHIBITORS” (Genelabs Technologies, Inc., priority 2006, published 2008)

Tested on: HCV RNA dependent RNA polymerase
Assay: HCV replicon assay (luciferase, Huh-lucubineo-ET cells)
Assay type: cell-based
Conditions: Hepatitis C virus; tested at 25 μM; ET (Huh-lucubineo-ET) replicon cell line; luciferase activity measured 48-72 hours after compound addition; relative to no compound control
Experimental: A cell line, ET (Huh-lucubineo-ET) was used for screening of compounds for inhibiting HCV RNA dependent RNA polymerase. The ET cell line was stably transfected with RNA transcripts harboring a I389luc-ubi-neo/NS3-3′/ET; replicon with firefly luciferase-ubiquitin-neomycin phosphotransferase fusion protein and EMCV-IRES driven NS3-5B polyprotein containing the cell culture adaptive mutations (E1202G; T1280I; K1846T) (Krieger at al, 2001 and unpublished). The ET cells were grown in DMEM (Dulbeco's Modified Eagle's Medium), supplemented with 10% fetal calf serum, 2 mM Glutamine, Penicillin (100 IU/mL)/Streptomycin (100 μg/mL), 1× nonessential amino acids, and 250 μg/mL G418 (“Geneticin”). Reagents are all available through Life Technologies (Bethesda, Md.). The cells were plated at 0.5−1.0×10^4 cells/well in the 96 well plates and incubated for 24 hrs before adding test compound. The compounds were added to the cells to achieve a final concentration of 0.1 nM to 50 μM and a final DMSO (dimethylsulfoxide) concentration of 0.5%. Luciferase activity was measured 48-72 hours later by adding a lysis buffer and the substrate (Catalog number Glo-lysis buffer E2661 and Bright-Glo luciferase system E2620 Promega, Madison, Wis.). Cells should not be too confluent during the assay. Percent inhibition of replication data is plotted relative to no compound control. Under the same condition, cytotoxicity of the compounds were determined using cell proliferation reagent, WST-1 (Roche, Germany). The compounds showing antiviral activities, but no significant cytotoxicities were chosen to determine EC50 and TC50 the effective concentration and toxic concentration at which 50% of the maximum inhibition is observed. For these determinations, a 10 point, 2-fold serial dilution for each compound was used, which spans a concentration range of 1000 fold. EC50 and similarly TC50 values were calculated by fitting % inhibition at each concentration to the following equation: % inhibition=100%/[(EC50/[I])b+1] where b is Hill's coefficient.

In order of falling inhibition at 25 µM:
1. O=C(O)c1ccc2c(C3CCCCC3)c3n(c2c1)CCCCn1c-3cc2ccc(O)cc21 [Compound 236]  100%
2. Cc1nc(C)c(-c2ccc3c4c(ccc3n2)-c2c(C3CCCCC3)c3ccc(C(=O)O)cc3n2CC(=O)N4)s1 [Compound 237]  100%
3. O=C(O)c1ccc2c(C3CCCCC3)c3n(c2c1)CCCCn1c-3cc2cc(O)ccc21 [Compound 234]  99%
4. COc1ccc2cc3n(c2c1)CCCCn1c-3c(C2CCCCC2)c2ccc(C(=O)O)cc21 [Compound 235]  99%
5. O=C(O)c1ccc2c(C3CCCCC3)c3n(c2c1)CCCCn1c-3cc2ccccc21 [Compound 228]  97%
6. O=C(O)c1ccc2c(C3CCCCC3)c3n(c2c1)CCCCn1c-3cc2cc(OCc3ccccc3)ccc21 [Compound 231]  96%
7. COc1ccc2c(c1)cc1n2CCCCn2c-1c(C1CCCCC1)c1ccc(C(=O)O)cc12 [Compound 233]  96%
8. O=C(O)c1ccc2c(C3CCCCC3)c3n(c2c1)CCCn1c-3cc2ccccc21 [Compound 227]  94%
9. O=C(O)c1ccc2c(C3CCCCC3)c3n(c2c1)CCCCn1c-3cc2ccc(OCc3ccccc3)cc21 [Compound 232]  91%
10. O=C(O)c1ccc2c(C3CCCCC3)c3n(c2c1)CCCCCn1c-3cc2ccccc21 [Compound 229]  86%
11. O=C(O)c1ccc2c(C3CCCCC3)c3n(c2c1)CCCCn1c-3cc2c(OCc3ccccc3)cccc21 [Compound 230]  75%
12. O=C(O)c1ccc2c(C3CCCCC3)c3n(c2c1)CCCCn1c-3nc2ccccc21 [Compound 226]  23%
13. O=C(O)c1ccc2c(C3CCCCC3)c3n(c2c1)CCCn1c-3nc2ccccc21 [Compound 225]  7%
